Laboratory results from patent US9814699B2, “Chemical compounds” (Janssen Pharmaceuticals, Inc., priority 2009, dated 2017).

How the values were obtained:
[1] = tested on: HCV genotype 1a subgenomic replicon; test: HCV replicon assay, genotype 1a subgenomic replicon (luciferase); format: cell-based; details: Hepatitis C virus; genotype 1a replicon stable cell line, luciferase activity measured 48 hours later; read-out: Replicon 1A pEC50 (converted)
Procedure: (§1) Protocol for Testing and Data Analysis of Compounds in the HCV Replicon Assay
(§2) Compounds were assayed for activity against HCV using the genotype 1a and 1b subgenomic replicon model systems. Stable cell lines bearing the genotype 1a and 1b replicons were used for screening of compounds. Both replicons are bicistronic and contain the firefly luciferase gene. The ET cell line is stably transfected with RNA transcripts harboring a I389luc-ubi-neo/NS3-3′/ET replicon with firefly luciferase-ubiquitin-neomycin phosphotransferase fusion protein and EMCV-IRES driven NS3-5B polyprotein containing the cell culture adaptive mutations (E1202G; T1280I; K1846T) (Krieger at al, 2001 and unpublished). The genotype 1a replicon is a stable cell line licensed from Apath LLC, modified to contain the firefly luciferase gene. The cells were grown in DMEM, supplemented with 10% fetal calf serum, 2 mM Glutamine, Penicillin (100 IU/mL)/Streptomycin (100 μg/mL), 1× nonessential amino acids, and 250-500 μg/mL G418 (“Geneticin”). They were all available through Life Technologies (Bethesda, Md.). The cells were plated at 5×10^3 cells/well in 384 well plates containing compounds. The final concentration of compounds ranged between 0.03 pM to 50 μm and the final DMSO concentration of 0.5-1%.
(§3) Luciferase activity was measured 48 hours later by adding a Steady glo reagent (Promega, Madison, Wis.). Percent inhibition of replication data was plotted relative to no compound control. Under the same condition, cytotoxicity of the compounds was determined using cell titer glo (Promega, Madison, Ws). EC50s were determined from an 11 point dose response curve using 3-4-fold serial dilution for each compound, which spans a concentration range >1000 fold. The level of inhibition for each compound was determined with Activity Base or with BioAssay plus the Excel XC50 module. Percent inhibition was determined with the following equation where the cross-talk corrected value is the value from the test well, the compound positive control mean is the average value of the wells with no compound present, and the DMSO negative control mean is the average value of the wells with DMSO but no cells present.
(§4) [formula] These normalized values are exported to EC50 where they are plotted against the molar compound concentrations using the standard four parameter logistic equation: […]

[2] = tested on: HCV genotype 1b subgenomic replicon; test: HCV replicon assay, genotype 1b subgenomic replicon (ET cell line, luciferase); format: cell-based; details: Hepatitis C virus; genotype 1b replicon ET cell line, luciferase activity measured 48 hours later; read-out: Replicon 1B pEC50 (converted)
Procedure: as §1, §2, §3, §4

SMILES	EC50 [1]	EC50 [2]
COC(=O)N[C@H](C(=O)N1CC2(CCN(C(=O)OC)CC2)CC1c1ncc(-c2ccc(-c3ccc(-c4cnc([C@@H]5CCCN5C(=O)[C@@H](NC(=O)OC)C(C)C)[nH]4)cc3)cc2)[nH]1)C(C)C (stereo partly drawn) [Example 22, methyl 2-{N-[(methyloxy)carbonyl]-L-valyl}-3-(4-{4′-[2-((2S)-1-{N-[(methyloxy)carbonyl]-L-valyl}-2-pyrrolidinyl)-1H-imidazol-4-yl]-4-biphenylyl}-1H-imidazol-2-yl)-2,8-diazaspiro[4.5]decane-8-carboxylate]	0.794 nM	0.0158 nM
COC(=O)N[C@@H](C)C(=O)N1CC2(C[C@H]1c1ncc(-c3ccc(-c4ccc(-c5cnc([C@@H]6CCCN6C(=O)[C@@H](NC(=O)OC)C(C)C)[nH]5)cc4)cc3)[nH]1)OCCCO2 [Example 5, methyl ((1S)-1-methyl-2-{(3S)-3-[4-(4′-{2-[(2S)-1-((2S)-3-methyl-2-{[(methyloxy)carbonyl]amino}butanoyl)-2-pyrrolidinyl]-1H-imidazol-4-yl}-4-biphenylyl)-1H-imidazol-2-yl]-6,10-dioxa-2-azaspiro[4.5]dec-2-yl}-2-oxoethyl)carbamate]	0.0794 nM	0.02 nM
COC(=O)N[C@H](C(=O)N1CC2(CCOCC2)C[C@H]1c1nc(-c2ccc(-c3ccc(-c4cnc([C@@H]5CC6(CCOCC6)CN5C(=O)[C@@H](NC(=O)OC)C(C)C)[nH]4)cc3)cc2)c[nH]1)C(C)C [Example 18, dimethyl (4,4′-biphenyldiylbis{1H-imidazole-4,2-diyl(3S)-8-oxa-2-azaspiro[4.5]decane-3,2-diyl[(2S)-3-methyl-1-oxo-1,2-butanediyl]})biscarbamate]	0.02 nM	0.0126 nM
COC(=O)NCC(=O)N1CC2(C[C@H]1c1ncc(-c3ccc(-c4ccc(-c5cnc([C@@H]6CCCN6C(=O)[C@@H](NC(=O)OC)C(C)C)[nH]5)cc4)cc3)[nH]1)SCCS2 [Example 14, methyl [(1S)-2-methyl-1-({(2S)-2-[4-(4′-{2-[(8S)-7-({[(methyloxy)carbonyl]amino}acetyl)-1,4-dithia-7-azaspiro[4.4]non-8-yl]-1H-imidazol-4-yl}-4-biphenylyl)-1H-imidazol-2-yl]-1-pyrrolidinyl}carbonyl)propyl]carbamate]	0.631 nM	0.00501 nM
COC(=O)N[C@H](C(=O)N1CCC[C@H]1c1nc(-c2ccc(-c3ccc(-c4c[nH]c([C@@H]5CC6(CN5C(=O)[C@@H](NC(=O)OC)C(C)C)SCCS6)n4)cc3)cc2)c[nH]1)C(C)C [Example 12, methyl [(1S)-2-methyl-1-({(2S)-2-[4-(4′-{2-[(8S)-7-((2S)-3-methyl-2-{[(methyloxy)carbonyl]amino}butanoyl)-1,4-dithia-7-azaspiro[4.4]non-8-yl]-1H-imidazol-4-yl}-4-biphenylyl)-1H-imidazol-2-yl]-1-pyrrolidinyl}carbonyl)propyl]carbamate]	0.0794 nM	0.00398 nM
COC(=O)N[C@H](C(=O)N1CCC[C@H]1c1ncc(-c2ccc(-c3ccc(-c4c[nH]c(C5CCC6(CCC(F)(F)CC6)N5C(C)=O)n4)cc3)cc2)[nH]1)C(C)C (stereo partly drawn) [Example 36, methyl ((1S)-1-{[(2S)-2-(4-{4′-[2-(1-acetyl-8,8-difluoro-1-azaspiro[4.5]dec-2-yl)-1H-imidazol-4-yl]-4-biphenylyl}-1H-imidazol-2-yl)-1-pyrrolidinyl]carbonyl}-2-methylpropyl)carbamate]	25.1 nM	0.1 nM
COC(=O)N[C@H](C(=O)N1CCC[C@H]1c1ncc(-c2ccc(-c3ccc(-c4cnc(C5CCC6(CCOCC6)N5C(=O)[C@@H](NC(=O)OC)C(C)C)[nH]4)cc3)cc2)[nH]1)C(C)C (stereo partly drawn) [Example 30, methyl [(1S)-2-methyl-1-({(2S)-2-[4-(4′-{2-[1-((2S)-3-methyl-2-{[(methyloxy)carbonyl]amino}butanoyl)-8-oxa-1-azaspiro[4.5]dec-2-yl]-1H-imidazol-4-yl}-4-biphenylyl)-1H-imidazol-2-yl]-1-pyrrolidinyl}carbonyl)propyl]carbamate]	1.58 nM	0.0631 nM
COC(=O)N[C@H](C(=O)N1CC2(CC1c1ncc(-c3ccc(-c4ccc(-c5cnc([C@@H]6CCCN6C(=O)[C@@H](NC(=O)OC)C(C)C)[nH]5)cc4)cc3)[nH]1)CN(C(C)=O)C2)C(C)C (stereo partly drawn) [Example 25, methyl [(1S)-1-({(2S)-2-[4-(4′-{2-[2-acetyl-6-((2S)-3-methyl-2-{[(methyloxy)carbonyl]amino}butanoyl)-2,6-diazaspiro[3.4]oct-7-yl]-1H-imidazol-4-yl}-4-biphenylyl)-1H-imidazol-2-yl]-1-pyrrolidinyl}carbonyl)-2-methylpropyl]carbamate]	1.26 nM	0.158 nM
CC[C@H](NC(=O)OC)C(=O)N1C(c2nc(-c3ccc(-c4ccc(-c5cnc([C@@H]6CCCN6C(=O)[C@@H](NC(=O)OC)C(C)C)[nH]5)cc4)cc3)c[nH]2)CCC12CCC(F)(F)CC2 (stereo partly drawn) [Example 33, methyl [(1S)-1-({8,8-difluoro-2-[4-(4′-{2-[(2S)-1-((2S)-3-methyl-2-{[(methyloxy)carbonyl]amino}butanoyl)-2-pyrrolidinyl]-1H-imidazol-4-yl}-4-biphenylyl)-1H-imidazol-2-yl]-1-azaspiro[4.5]dec-1-yl}carbonyl)propyl]carbamate]	1 nM	0.0158 nM
COC(=O)N[C@H](C(=O)N1CC2(CNC2)CC1c1ncc(-c2ccc(-c3ccc(-c4cnc([C@@H]5CCCN5C(=O)[C@@H](NC(=O)OC)C(C)C)[nH]4)cc3)cc2)[nH]1)C(C)C (stereo partly drawn) [Example 24, methyl [(1S)-2-methyl-1-({(2S)-2-[4-(4′-{2-[6-((2S)-3-methyl-2-{[(methyloxy)carbonyl]amino}butanoyl)-2,6-diazaspiro[3.4]oct-7-yl]-1H-imidazol-4-yl}-4-biphenylyl)-1H-imidazol-2-yl]-1-pyrrolidinyl}carbonyl)propyl]carbamate]	3.16 nM	0.126 nM
COC(=O)N[C@H](C(=O)N1CCC[C@H]1c1ncc(-c2ccc(-c3ccc(-c4cnc([C@@H]5CC6(CN5C(=O)[C@@H](NC(=O)OC)C(C)C)O[C@@H](C)[C@H](C)O6)[nH]4)cc3)cc2)[nH]1)C(C)C [Example 11, methyl [(1S)-1-({(2S)-2-[4-(4′-{2-[(2S,3S,8S)-2,3-dimethyl-7-((2S)-3-methyl-2-{[(methyloxy)carbonyl]amino}butanoyl)-1,4-dioxa-7-azaspiro[4.4]non-8-yl]-1H-imidazol-5-yl}-4-biphenylyl)-1H-imidazol-2-yl]-1-pyrrolidinyl}carbonyl)-2-methylpropyl]carbamate]	1.26 nM	0.01 nM
[2H]C1([2H])OC2(C[C@@H](c3ncc(-c4ccc(-c5ccc(-c6cnc([C@@H]7CCCN7C(=O)[C@@H](NC(=O)OC)C(C)C)[nH]6)cc5)cc4)[nH]3)N(C(=O)[C@@H](NC(=O)OC)C(C)C)C2)OC([2H])([2H])C1([2H])[2H] [Example 8, methyl [(1S)-2-methyl-1-({(2S)-2-[4-(4′-{2-[(3S)-2-((2S)-3-methyl-2-{[(methyloxy)carbonyl]amino}butanoyl)-6,10-dioxa-2-azaspiro[4.5]dec-3-yl]-1H-imidazol-4-yl}-4-biphenylyl)-1H-imidazol-2-yl]-1-pyrrolidinyl}carbonyl)propyl]carbamate-d6]	0.0316 nM	0.00794 nM
